Results reported in PubChem BioAssay AID330 (DTP/NCI, 2004).
“And” between values parts separate entries of the source, which are not always exact repeats. Equal entries are not always repeated. Toxic doses and inconclusive results are not listed. The calls were made as follows: active = survival T/C of 150% or more; inactive = T/C below 125% in these data.

Test system: P388 leukemia ip, CD2F1 mice, survival T/C
Experiment: NCI In Vivo Anticancer Drug Screen. Data for tumor model P388 Leukemia (intraperitoneal) in CD2F1 (CDF1) mice
Details: endpoint: median survival time, higher = longer survival
How it was run: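 Mice carrying the transplanted tumor received test compound or vehicle. Survival was recorded in each group, and the value is the treated-group measurement divided by that of the vehicle-treated control group.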

[1] = dose: 100.0 mg/kg/injection, schedule: Q04DX003 (ip), vehicle: saline with Tween-80
[2] = dose: 200.0 mg/kg/injection, schedule: Q04DX003 (ip), vehicle: saline with Tween-80
[3] = dose: 100.0 mg/kg/injection, schedule: Q01DX001 (ip), vehicle: saline
[4] = dose: 200.0 mg/kg/injection, schedule: Q01DX001 (ip), vehicle: saline
[5] = dose: 50.0 mg/kg/injection, schedule: Q01DX005 (ip), vehicle: saline with Tween-80
[6] = dose: 100.0 mg/kg/injection, schedule: Q01DX005 (ip), vehicle: saline with Tween-80
[7] = dose: 200.0 mg/kg/injection, schedule: Q01DX005 (ip), vehicle: saline with Tween-80
[8] = dose: 12.5 mg/kg/injection, schedule: Q01DX009 (ip), vehicle: Klucel (hydroxypropylcellulose) (HPC)
[9] = dose: 50.0 mg/kg/injection, schedule: Q01DX009 (ip), vehicle: saline with Tween-80
[10] = dose: 100.0 mg/kg/injection, schedule: Q01DX009 (ip), vehicle: saline with Tween-80
[11] = dose: 200.0 mg/kg/injection, schedule: Q01DX009 (ip), vehicle: saline with Tween-80
[12] = dose: 400.0 mg/kg/injection, schedule: Q01DX009 (ip), vehicle: saline with Tween-80
[13] = dose: 50.0 mg/kg/injection, schedule: Q01DX009 (ip), vehicle: Klucel (hydroxypropylcellulose) (HPC)
[14] = dose: 200.0 mg/kg/injection, schedule: Q01DX009 (ip), vehicle: Klucel (hydroxypropylcellulose) (HPC)
[15] = dose: 100.0 mg/kg/injection, schedule: Q04DX003 (ip), vehicle: saline
[16] = dose: 200.0 mg/kg/injection, schedule: Q04DX003 (ip), vehicle: saline
[17] = dose: 400.0 mg/kg/injection, schedule: Q04DX003 (ip), vehicle: saline
[18] = dose: 50.0 mg/kg/injection, schedule: Q01DX009 (ip), vehicle: saline
[19] = dose: 100.0 mg/kg/injection, schedule: Q01DX009 (ip), vehicle: saline
[20] = dose: 100.0 mg/kg/injection, schedule: Q04DX002 (ip), vehicle: saline with Tween-80
[21] = dose: 200.0 mg/kg/injection, schedule: Q04DX002 (ip), vehicle: saline with Tween-80
[22] = dose: 400.0 mg/kg/injection, schedule: Q04DX002 (ip), vehicle: saline with Tween-80
[23] = dose: 60.0 mg/kg/injection, schedule: Q01DX005 (ip), vehicle: saline with Tween-80
[24] = dose: 120.0 mg/kg/injection, schedule: Q01DX005 (ip), vehicle: saline with Tween-80

Measured: T/C

CCOC(=O)C1NC(=O)C(C)NC1=O (centres undefined)
inactive: dose: 60.0 mg/kg/injection, schedule: Q01DX005 (ip), vehicle: Klucel (hydroxypropylcellulose) (HPC) 103 % of control | dose: 120.0 mg/kg/injection, schedule: Q01DX005 (ip), vehicle: Klucel (hydroxypropylcellulose) (HPC) 107 % of control | dose: 240.0 mg/kg/injection, schedule: Q01DX005 (ip), vehicle: Klucel (hydroxypropylcellulose) (HPC) 100 % of control

Cc1nc2c(ccc3cc4ccccc4cc32)cc1N(CCO)CCO
inactive: dose: 50.0 mg/kg/injection, schedule: Q01DX009 (ip), vehicle: saline + Tween-80 + alcohol 110 % of control | dose: 100.0 mg/kg/injection, schedule: Q01DX009 (ip), vehicle: saline + Tween-80 + alcohol 108 % of control | dose: 200.0 mg/kg/injection, schedule: Q01DX009 (ip), vehicle: saline + Tween-80 + alcohol 99 % of control

CC(=O)OC1OC(CF)C(OC(C)=O)C1OC(C)=O (centres undefined)
inactive: dose: 50.0 mg/kg/injection, schedule: Q04DX003 (ip), vehicle: saline with Tween-80 112 % of control | [1] 100 % of control | [2] 93 % of control

COc1ccc(CS(=O)(=O)c2cncnc2N)cc1OC
inactive: [3] 106 % of control | [4] 96 % of control | dose: 400.0 mg/kg/injection, schedule: Q01DX001 (ip), vehicle: saline 101 % of control

O=C(CCc1ccccc1C(=O)O)c1ccccc1O
inactive: [5] 94 % of control | [6] 105 % of control | [7] 93 % of control

CCCCCCCCCC(O)CCCCCC (centres undefined)
inactive: dose: 88.0 mg/kg/injection, schedule: Q01DX009 (ip), vehicle: other 109 % of control | dose: 132.0 mg/kg/injection, schedule: Q01DX009 (ip), vehicle: other 109 % of control | dose: 200.0 mg/kg/injection, schedule: Q01DX009 (ip), vehicle: other 118 % of control

COC1C(O)=C2C(=O)OC(C)(O)/C=C/C=C\C=C/C=C/C(c3ccccc3)NC(=O)/C=C/C=C/C=C/C=C/C2(C)C1O (centres undefined)
inactive: [8] 103 % of control and 86 % of control

O=C(O)C(Cc1ccccc1N(CCO)CCO)N1C(=O)c2ccccc2C1=O (centres undefined)
inactive: dose: 25.0 mg/kg/injection, schedule: Q01DX009 (ip), vehicle: saline with Tween-80 99 % of control | [9] 93 % of control | [10] 93 % of control | [11] 96 % of control

O=S(=O)(F)c1ccc2nc(-c3cccc(Sc4ccccc4)c3)cc(Cl)c2c1
inactive: [10] 100 % of control | [11] 95 % of control | [12] 95 % of control

O=C(Nc1cccc([N+](=O)[O-])c1)C1C(=O)N(c2cccc([N+](=O)[O-])c2)C(=O)/C1=N/O (centres undefined)
inactive: [5] 99 % of control | [6] 95 % of control | [7] 100 % of control

O=C1C2C3C=CC(C3)C2C(=O)N1c1ccc2nc(SC3C=CCCC3)sc2c1 (centres undefined)
inactive: [8] 100 % of control | dose: 25.0 mg/kg/injection, schedule: Q01DX009 (ip), vehicle: Klucel (hydroxypropylcellulose) (HPC) 106 % of control | [13] 99 % of control and 97 % of control | [14] 88 % of control

c1cc[n+](-c2nc3ccccc3[n-]2)cc1
inactive: [15] 100 % of control | [16] 98 % of control | [17] 100 % of control

CCOc1ccc(/C=N/Nc2ccc([N+](=O)[O-])cc2)cc1OC
inactive: [1] 95 % of control | [2] 90 % of control | dose: 400.0 mg/kg/injection, schedule: Q04DX003 (ip), vehicle: saline with Tween-80 90 % of control

O=C(CSc1nc(-c2ccccc2)c(-c2ccccc2)o1)N1CCCCC1
inactive: [18] 93 % of control | [19] 110 % of control | dose: 200.0 mg/kg/injection, schedule: Q01DX009 (ip), vehicle: saline 110 % of control

CC(C)(C)c1cc(/C=C2/OC(=O)c3ccccc32)cc(C(C)(C)C)c1O
inactive: dose: 100.0 mg/kg/injection, schedule: Q04DX002 (ip), vehicle: saline 99 % of control | dose: 200.0 mg/kg/injection, schedule: Q04DX002 (ip), vehicle: saline 100 % of control | dose: 400.0 mg/kg/injection, schedule: Q04DX002 (ip), vehicle: saline 96 % of control

COC1(OC)C2(Cl)C(Cl)=C(Cl)C1(Cl)C1C3CC=CC(CC12)S3 (centres undefined)
inactive: [20] 102 % of control | [21] 100 % of control | [22] 99 % of control

CC1=C(c2ccco2)C2(c3ccco3)C(C(=O)c3ccccc3)C2(C)C1=O (centres undefined)
inactive: [5] 90 % of control | [6] 90 % of control | [7] 95 % of control

C=COC(=O)C(Cc1cc(OC)c(OC)c(OC)c1)NC(=O)OCc1ccccc1 (centres undefined)
inactive: [20] 102 % of control | [21] 101 % of control | [22] 96 % of control

CCCCN(CCCC)c1cc(=O)nc2ccccn12
inactive: dose: 60.0 mg/kg/injection, schedule: Q01DX005 (ip), vehicle: saline 101 % of control | dose: 120.0 mg/kg/injection, schedule: Q01DX005 (ip), vehicle: saline 101 % of control | dose: 240.0 mg/kg/injection, schedule: Q01DX005 (ip), vehicle: saline 100 % of control

CC(=O)OC1CC2CCC3C(CCC4(C)C3CC([N+]3(C)CCCCC3)C4OC(C)=O)C2(C)CC1[N+]1(C)CCCCC1 (centres undefined)
inactive: dose: 12.5 micrograms/kg/injection, schedule: Q01DX009 (ip), vehicle: saline 103 % of control | dose: 25.0 micrograms/kg/injection, schedule: Q01DX009 (ip), vehicle: saline 100 % of control | dose: 50.0 micrograms/kg/injection, schedule: Q01DX009 (ip), vehicle: saline 103 % of control

O=NN(Cc1ccc(Cl)cc1)NC1=NCCN1
inactive: [13] 98 % of control | dose: 100.0 mg/kg/injection, schedule: Q01DX009 (ip), vehicle: Klucel (hydroxypropylcellulose) (HPC) 99 % of control | [14] 105 % of control

C/C=C/N=NNc1ccccc1OC
inactive: dose: 100.0 mg/kg/injection, schedule: Q04DX003 (ip), vehicle: saline + Tween-80 + alcohol 107 % of control

CC1CC(=O)C2(C)C1CC1CCC2(C)OC1(C)C (centres undefined)
inactive: [10] 100 % of control | [11] 102 % of control | [12] 100 % of control

Nc1nc2ncc(CNc3ccc(C(=O)NC(CCC(=O)O)C(=O)O)cc3)nc2c(=O)[nH]1 (centres undefined)
inactive: dose: 6.25 mg/kg/injection, schedule: Q01DX009 (ip), vehicle: saline 103 % of control | dose: 12.5 mg/kg/injection, schedule: Q01DX009 (ip), vehicle: saline 99 % of control and 98 % of control | dose: 25.0 mg/kg/injection, schedule: Q01DX009 (ip), vehicle: saline 99 % of control and 96 % of control | dose: 45.0 mg/kg/injection, schedule: Q04DX003 (ip), vehicle: saline 103 % of control | [9] 108 % of control | [18] 101 % of control and 103 % of control | dose: 90.0 mg/kg/injection, schedule: Q04DX003 (ip), vehicle: saline 61 % of control | [19] 98 % of control | dose: 180.0 mg/kg/injection, schedule: Q04DX003 (ip), vehicle: saline 40 % of control

CCCC1(CCC)NC(=O)N(CC(=O)OCC)C1=O
inactive: [3] 105 % of control | [4] 110 % of control

Clc1ccc(COCc2ccccc2Cn2ccnc2)cc1
inactive: [23] 95 % of control | [24] 99 % of control

O=C1C2CCCC1C(c1ccccc1Cl)NC2c1ccccc1Cl (centres undefined)
inactive: [15] 89 % of control | [16] 96 % of control | [17] 94 % of control

Cc1ccc(S(=O)(=O)F)cc1C(=O)O
inactive: [23] 101 % of control | [24] 93 % of control

CC1(c2ccc(S(=O)(=O)c3ccccc3)cc2)OC(=O)C=CC1=O (centres undefined)
inactive: dose: 6.25 mg/kg/injection, schedule: Q01DX005 (ip), vehicle: saline with Tween-80 89 % of control | dose: 12.5 mg/kg/injection, schedule: Q01DX005 (ip), vehicle: saline with Tween-80 89 % of control | dose: 25.0 mg/kg/injection, schedule: Q01DX005 (ip), vehicle: saline with Tween-80 115 % of control | [5] 120 % of control
